The source made the active and inactive calls. The rule behind the calls is not given here.
What follows are molecules tested against Glutamate NMDA receptor (assay: Displacement of L-[3H]glutamate from N-methyl-D-aspartate glutamate receptor in rat brain synaptic membranes). Settings: not given.
Assay type: cell membranes, Membrane

Compound	Ki [µM]
N[C@H](CCCP(=O)(O)O)C(=O)O	3.83

What follows are molecules tested against Glutamate NMDA receptor (Rattus norvegicus) (UniProt P35439+Q00959+Q00960+Q00961+Q62645+Q8VHN2+Q9R1M7) (assay: Displacement of L-[3H]glutamate from N-methyl-D-aspartate glutamate receptor in rat brain synaptic membranes; No displacement up to 100 uM). Settings: Membrane.
Assay type: cell membranes

Compound	Activity
NCC(=O)N1CCC[C@H]1C(=O)N[C@H](CCCC(=O)O)C(=O)O	inactive
NCC(=O)N1CCC[C@@H]1C(=O)N[C@H](CCC(=O)O)C(=O)O	inactive
NCC(=O)N1CCC[C@H]1C(=O)N[C@H](CCC(=O)O)C(=O)O	inactive
NCC(=O)N1CCC[C@H]1C(=O)N[C@@H](CCCC(=O)O)C(=O)O	inactive
NCC(=O)N1CCC[C@H]1C(=O)N[C@@H](CC(=O)O)C(=O)O	inactive
NCC(=O)N1CSC[C@@H]1C(=O)N[C@@H](CCC(=O)O)C(=O)O	inactive
CC1(C)SC[C@H](C(=O)N[C@@H](CCC(=O)O)C(=O)O)N1C(=O)CN	inactive
NCC(=O)N1CCC[C@@H]1C(=O)N[C@@H](CCC(=O)O)C(=O)O	inactive
NCC(=O)N1CCC[C@H]1C(=O)N[C@H](CC(=O)O)C(=O)O	inactive

Source: ChEMBL document CHEMBL1144378, “Analogues of the neuroprotective tripeptide Gly-Pro-Glu (GPE): synthesis and structure-activity relationships” (Bioorg Med Chem Lett, 2005)
